Patent US6331555A, “Treatment of platelet derived growth factor related disorders such as cancers” (priority 1999, dated 2001)

What was measured:
[1] = system: glioblastoma multiformae (GBM) primary tumor cells; assay: Growth of primary tumor cells from glioblastoma patients; format: cell-based, human
Method: Viable tumors were placed into medium by the pathologist at the referring institution immediately after surgery, and shipped to Oncotech by overnight delivery. As soon as a tumor was received, a portion was fixed in formalin for sectioning and the remainder trimmed of necrotic, connective and adipose tissues. All tumor manipulations were performed aseptically. The remaining tumor was placed into a Petri dish containing 5 mL of medium (RPMI 1640 supplemented with 10% FBS, 100 IU/mL penicillin, […] streptomycin and L-glutamine) and disaggregated mechanically with scissors into pieces 2 mm or smaller. […]
After enzymatic dispersion into a near single-cell suspension, tumor cells were filtered through nylon mesh, washed in medium, suspended in soft agarose (0.12%) and plated at approximately 20,000 cells per well onto an agarose underlayer (0.4%) in 24-well plates. […] After the appropriate labeling period, tissue culture plates were heated at 60° C. to melt the agarose, the cells harvested with a micro-harvester onto glass fiber filters and the radioactivity determined. Percent inhibition (PCI) was determined using the formula: PCI=1-(CPM treatment group […] CPM control group). Determinations of control group proliferation were performed in quadruplicate, while treatment group proliferation was determined in triplicate. […]

[2] = system: spleen cells; assay: Normal immune function in naive mice; format: in vivo, mouse
From the text: (§1) At the indicated times, animals were sacrificed, and the spleens were aseptically removed and placed into sterile medium. Spleens were processed into single cell suspensions by grinding between sterile frosted glass microscope slides. After a single wash to remove tissue debris, the spleen cells were resuspended in a hypotonic ammonium chloride buffer to lyse erythrocytes. Lymphocytes were washed and resuspended to the appropriate concentrations in complete medium, consisting of RPMI plus 10% heat-inactivated FBS, 2 mM glutamine, 50 μM β-mercaptoethanol, and penicillin-streptomycin. The responses of the lymphocytes were examined in the following assays according to accepted procedures (Current Protocols in Immunology. Coligan, J. E., Kruisbeek, A. M., Margulies, D. H., Shevach, E. M., Strober, W. (eds.) John Wiley and Sons, Inc., 1992).
(§2) The T-cell mitogen, ConA, and the T-cell independent B-cell mitogen, LPS, were added to 96-well round-bottom wells at the indicated concentrations. Lymphocytes from normal, vehicle-dosed, and drug-dosed animals were added at a final concentration of 2.5×10^5 /well. Cultures were usually set up in triplicate or quadruplicate. The plates were incubated at 37° C. in a humidified atmosphere containing 5% CO2 for the indicated times. Supernatants (approximately 100 μL) were carefully removed from the wells and stored at -80° C. for lymphokine and immunoglobulin analyses. To measure proliferation of the lymphocytes, 1 μCi of ^3 H-thymidine was added to each well, and the plates were incubated for 6 hr. The cultures were harvested onto glass fiber filters, and the incorporated radioactivity was quantitated by liquid scintillation counting (Betaplate, Wallac).
(§3) Lymphocytes from normal, vehicle-dosed, and drug-dosed animals were plated at 2.5×10^5 /well in round-bottom 96-well plates. Stimulator cells were then added at the same cell concentration. The stimulator cells consisted of syngeneic or allogeneic lymphocytes which had been treated with 50 μg/mL of mitomycin C for 30 min prior to the assay. The plates were incubated for 3 to 4 days, at which time supernatants were harvested and the cultures were pulsed as described for the mitogen assays.
(§4) Supernatants from mitogen and MLR cultures were assayed for IL-2 and IL-6 content by the ability to support the growth of factor-dependent cell lines. HT-2 cells (10^4 /well, IL-2-dependent) and 7TD1 cells (2×10^3 /well, IL-6-dependent) were plated in 96-well flat-bottom plates, in 50 μL/well. Supernatants were added in 50 μL/well, and the plates were incubated overnight (HT-2) or four days (7TD1). Cellular proliferation was determined in the MTT colorimetric assay (Appendix 3.1).
(§5) Flat bottom 96-well EIA plates were coated with goat anti-mouse Ig antibodies (Southern Biotechnology) overnight at 4° C. The plates were blocked by the addition of PBS+1% BSA. After washing with PBS, supernatants from murine mitogen and MLR cultures were added and incubated at room temperature for 1 hr. The plates were washed with PBS, then HRP-labeled goat anti-mouse Ig antibodies were added and incubated at room temperature for 1 hr. The plates were washed and developed by the addition of substrate (ABTS).
The animals were sacrificed and their spleen cells were assayed in vitro for responses to ConA (a T-cell mitogen), LPS (a T-cell independent B-cell mitogen), and alloantigens (C3H/HeJ spleen cells) as described in Appendix 5. The IL-2, IL-6, Ig content and cellular proliferation were measured after 48 hr (mitogens) or 72 hr (alloantigens).

[3] = system: spleen cells; assay: Normal immune function in mice bearing a primary tumor; format: in vivo, mouse; conditions: 20 mg/kg/day
From the text: as §1, §2, §3, §4, §5
BALB/c mice received SC implants of syngeneic WEHI-164.13 fibrosarcoma cells on day 0. […] On day 17, the animals were sacrificed and their spleens were removed. The spleen cells were assayed in vitro for responses to alloantigens and mitogens.

## Cc1oncc1C(=O)Nc1ccc(C(F)(F)F)cc1 [Compound A10, 5-methylisoxazole-4 carboxylic acid-(4-trifluromethyl)-anilide]
[1]; 0 to 400 mM
  tumor cell growth: tumor cell growth decreased for both types of tumors
[1]; Homo sapiens, range over six patients, read-out: IC50, GBM tumors
  IC50: 39 to 198 µM
[2]; Allo, d7, vs vehicle
  3H-thymidine uptake: 0
  IL-2 production: 0
  IL-6 production: 0
  Ig production: 0
[2]; Allo, d21, vs vehicle
  3H-thymidine uptake: 0
  IL-2 production: 0
  IL-6 production: 0
  Ig production: 0
[2]; ConA, d7, vs vehicle
  3H-thymidine uptake: 0
  IL-2 production: 0
  IL-6 production: ++
  Ig production: 0
[2]; ConA, d21, vs vehicle
  3H-thymidine uptake: 0
  IL-2 production: 0
  IL-6 production: 0
  Ig production: 0
[2]; LPS, d7, vs vehicle
  3H-thymidine uptake: 0
  IL-2 production: 0
  IL-6 production: 0
  Ig production: +
[2]; LPS, d21, vs vehicle
  3H-thymidine uptake: 0
  IL-2 production: 0
  IL-6 production: 0
  Ig production: +/-
[3]; Allo
  IL-2 production: 0
  IL-6 production: 0
  Ig production: 0
[3]; ConA
  IL-2 production: 0
  IL-6 production: 0
  Ig production: 0
[3]; LPS
  IL-2 production: 0
  IL-6 production: 0
  Ig production: 0
[3]; Tumor stimulus
  IL-2 production: 0
  IL-6 production: 0
  Ig production: 0
